Test results: patent US20190307732A1, “METHODS OF TREATING MITOCHONDRIAL AND METABOLIC DISORDERS” (Abraxis Bioscience, LLC, priority 2016, published 2019)

System: S6 phosphorylation
Experiment: Inhibition of S6 phosphorylation (pS6) in IMR90 fibroblast lysates
Type: cell-based
Details: Homo sapiens, IMR-90; IMR90 fibroblasts; dose of 1 ng/mL; FIG. 2
Description: IMR90 fibroblasts were administered varying doses of nab-sirolimus or rapamycin. Cell lysates were used to determine inhibition of S6 phosphorylation. Presence of vimentin. S6, and phosphorylated S6 (pS6) was measured.

CO[C@H]1C[C@@H]2CC[C@@H](C)[C@@](O)(O2)C(=O)C(=O)N2CCCC[C@H]2C(=O)O[C@H]([C@H](C)C[C@@H]2CC[C@@H](O)[C@H](OC)C2)CC(=O)[C@H](C)/C=C(\C)[C@@H](O)[C@@H](OC)C(=O)[C@H](C)C[C@H](C)/C=C/C=C/C=C/1C [rapamycin]
inhibition at 0.001 µg/mL: 100%
